# PubChem BioAssay (NCI)
#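 Five compound concentrations were applied to cells in 96-well plates for 48 hours; endpoints were derived by simple linear interpolation of the resulting dose-response curve. GI50 is the concentration that inhibits growth by half. TGI denotes the concentration required for complete inhibition of growth.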
# Assays:
# Test in all cases: NCI anticancer screen, dose series, 48 h
# [1] = test system: T-47D breast
# [2] = test system: HCC-2998 colon
# [3] = test system: MCF7 breast
# [4] = test system: SK-MEL-5 melanoma
# [5] = test system: U251 CNS
# [6] = test system: SF-539 CNS
# [7] = test system: NCI/ADR-RES ovarian
# [8] = test system: RXF 393 renal
# [9] = test system: ACHN renal
# [10] = test system: M14 melanoma
# [11] = test system: SF-268 CNS
# [12] = test system: CAKI-1 renal
# [13] = test system: HS 578T breast
# [14] = test system: OVCAR-8 ovarian
# [15] = test system: PC-3 prostate
# [16] = test system: SF-295 CNS
# [17] = test system: 786-0 renal
# [18] = test system: MDA-MB-435
# [19] = test system: MDA-MB-231 breast
# [20] = test system: MOLT-4 leukemia
# [21] = test system: TK-10 renal
# [22] = test system: HL-60(TB) leukemia
# [23] = test system: RPMI-8226 leukemia
# [24] = test system: NCI-H23 lung
# [25] = test system: HOP-62 NSCLC
# [26] = test system: HOP-92 NSCLC
# [27] = test system: SK-MEL-2 melanoma
# [28] = test system: UACC-62 melanoma
# [29] = test system: NCI-H460 lung
# [30] = test system: HT29 colon
# [31] = test system: A498 renal
# [32] = test system: IGROV1 ovarian
# [33] = test system: OVCAR-5 ovarian
# [34] = test system: KM12 colon
# [35] = test system: HCT-15 colon
# [36] = test system: SN12C renal
# [37] = test system: SK-MEL-28 melanoma
# [38] = test system: K-562 leukemia
# [39] = test system: OVCAR-4 ovarian
# [40] = test system: MALME-3M melanoma
# [41] = test system: SK-OV-3 ovarian
# [42] = test system: BT-549 breast
# [43] = test system: SW-620 colon
# [44] = test system: HCT-116 colon
# [45] = test system: OVCAR-3 ovarian
# [46] = test system: DU-145 prostate
# [47] = test system: UACC-257 melanoma
# [48] = test system: NCI-H226 lung
# [49] = test system: LOX IMVI melanoma
# [50] = test system: COLO 205 colon
# [51] = test system: NCI-H522 lung
# [52] = test system: UO-31 renal
# [53] = test system: SNB-19 CNS
# [54] = test system: EKVX NSCLC
# [55] = test system: A549 NSCLC
# [56] = test system: SNB-75 CNS
# [57] = test system: CCRF-CEM leukemia
smiles,measurement,setting,value
Cc1cc[c-]cc1.Fc1c[c-]c(-c2ccccn2)c(F)c1.[Pt+2].c1ccc(P(C[PH+](c2ccccc2)c2ccccc2)c2ccccc2)cc1,GI50,[1],2.34 µM
same,TGI,[1],9.47 µM
same,GI50,[2],2.96 µM
same,TGI,[2],12.1 µM
same,GI50,[3],2.33 µM
same,TGI,[3],7.83 µM
same,GI50,[4],1.66 µM
same,TGI,[4],3.05 µM
same,GI50,[5],2.32 µM
same,TGI,[5],12.2 µM
same,GI50,[6],3.34 µM
same,TGI,[6],12.4 µM
same,GI50,[7],13.9 µM
same,TGI,[7],48.2 µM
same,GI50,[8],2.45 µM
same,TGI,[8],8.64 µM
same,GI50,[9],2.89 µM
same,TGI,[9],9.84 µM
same,GI50,[10],2.91 µM
same,TGI,[10],13.7 µM
same,GI50,[11],2.9 µM
same,TGI,[11],13.5 µM
same,GI50,[12],2.43 µM
same,TGI,[12],9.03 µM
same,GI50,[13],2.61 µM
same,TGI,[13],9.94 µM
same,GI50,[14],2.68 µM
same,TGI,[14],15.4 µM
same,GI50,[15],1.76 µM
same,TGI,[15],11.7 µM
same,GI50,[16],2.56 µM
same,TGI,[16],10.2 µM
same,GI50,[17],2.92 µM
same,TGI,[17],10.1 µM
same,GI50,[18],2.18 µM
same,TGI,[18],6.2 µM
same,GI50,[19],2.6 µM
same,TGI,[19],8.47 µM
same,GI50,[20],3.35 µM
same,TGI,[20],12.2 µM
same,GI50,[21],2.93 µM
same,TGI,[21],14.8 µM
same,GI50,[22],2.36 µM
same,TGI,[22],6.88 µM
same,GI50,[23],0.719 µM
same,TGI,[23],4.38 µM
same,GI50,[24],2.21 µM
same,TGI,[24],8.67 µM
same,GI50,[25],2.84 µM
same,TGI,[25],10.7 µM
same,GI50,[26],1.57 µM
same,TGI,[26],4.97 µM
same,GI50,[27],2.36 µM
same,TGI,[27],6.61 µM
same,GI50,[28],2.04 µM
same,TGI,[28],9.31 µM
same,GI50,[29],1.77 µM
same,TGI,[29],7.1 µM
same,GI50,[30],2.61 µM
same,TGI,[30],12.4 µM
same,GI50,[31],2.04 µM
same,TGI,[31],6.11 µM
same,GI50,[32],2.11 µM
same,TGI,[32],12.2 µM
same,GI50,[33],2.99 µM
same,TGI,[33],11.9 µM
same,GI50,[34],2.4 µM
same,TGI,[34],9.23 µM
same,GI50,[35],3.21 µM
same,TGI,[35],12.6 µM
same,GI50,[36],2.4 µM
same,TGI,[36],10.1 µM
same,GI50,[37],2.86 µM
same,TGI,[37],10.3 µM
same,GI50,[38],1.56 µM
same,TGI,[38],12.2 µM
same,GI50,[39],2.17 µM
same,TGI,[39],9.4 µM
same,GI50,[40],1.7 µM
same,TGI,[40],5.06 µM
same,GI50,[41],2.77 µM
same,TGI,[41],7.79 µM
same,GI50,[42],2.62 µM
same,TGI,[42],12.2 µM
same,GI50,[43],2.83 µM
same,TGI,[43],12.4 µM
same,GI50,[44],2.65 µM
same,TGI,[44],11.2 µM
same,GI50,[45],1.72 µM
same,TGI,[45],10.6 µM
same,GI50,[46],2.99 µM
same,TGI,[46],12.8 µM
same,GI50,[47],2.37 µM
same,TGI,[47],8.15 µM
same,GI50,[48],2.93 µM
same,TGI,[48],11.6 µM
same,GI50,[49],2.19 µM
same,TGI,[49],6.24 µM
same,GI50,[50],1.84 µM
same,TGI,[50],3.76 µM
same,GI50,[51],2.12 µM
same,TGI,[51],8.27 µM
same,GI50,[52],2.13 µM
same,TGI,[52],7.53 µM
same,GI50,[53],2.81 µM
same,TGI,[53],12.8 µM
same,GI50,[54],2.32 µM
same,TGI,[54],12.7 µM
same,GI50,[55],1.43 µM
same,TGI,[55],12.1 µM
Cc1cc(C2CC(O)C(CO)O2)cc2c(=O)[nH]c(N)nc12 (centres undefined),GI50,[1],> 100 µM
same,TGI,[1],> 100 µM
same,GI50,[2],> 100 µM
same,TGI,[2],> 100 µM
same,GI50,[3],> 100 µM
same,TGI,[3],> 100 µM
same,GI50,[4],> 100 µM
same,TGI,[4],> 100 µM
same,GI50,[5],> 100 µM
same,TGI,[5],> 100 µM
same,GI50,[6],> 100 µM
same,TGI,[6],> 100 µM
same,GI50,[7],> 100 µM
same,TGI,[7],> 100 µM
same,GI50,[8],> 100 µM
same,TGI,[8],> 100 µM
same,GI50,[10],> 100 µM
same,TGI,[10],> 100 µM
same,GI50,[11],> 100 µM
same,TGI,[11],> 100 µM
same,GI50,[12],> 100 µM
same,TGI,[12],> 100 µM
same,GI50,[13],> 100 µM
same,TGI,[13],> 100 µM
same,GI50,[14],> 100 µM
same,TGI,[14],> 100 µM
same,GI50,[15],> 100 µM
same,TGI,[15],> 100 µM
same,GI50,[16],> 100 µM
same,TGI,[16],> 100 µM
same,GI50,[17],> 100 µM
same,TGI,[17],> 100 µM
same,GI50,[18],> 100 µM
same,TGI,[18],> 100 µM
same,GI50,[19],> 100 µM
same,TGI,[19],> 100 µM
same,GI50,[20],> 100 µM
same,TGI,[20],> 100 µM
same,GI50,[23],> 100 µM
same,TGI,[23],> 100 µM
same,GI50,[24],> 100 µM
same,TGI,[24],> 100 µM
same,GI50,[25],> 100 µM
same,TGI,[25],> 100 µM
same,GI50,[26],> 100 µM
same,TGI,[26],> 100 µM
same,GI50,[27],> 100 µM
same,TGI,[27],> 100 µM
same,GI50,[28],> 100 µM
same,TGI,[28],> 100 µM
same,GI50,[29],> 100 µM
same,TGI,[29],> 100 µM
same,GI50,[30],> 100 µM
same,TGI,[30],> 100 µM
same,GI50,[31],> 100 µM
same,TGI,[31],> 100 µM
same,GI50,[32],71 µM
same,TGI,[32],> 100 µM
same,GI50,[33],> 100 µM
same,TGI,[33],> 100 µM
same,GI50,[35],> 100 µM
same,TGI,[35],> 100 µM
same,GI50,[36],> 100 µM
same,TGI,[36],> 100 µM
same,GI50,[37],> 100 µM
same,TGI,[37],> 100 µM
same,GI50,[38],> 100 µM
same,TGI,[38],> 100 µM
same,GI50,[39],> 100 µM
same,TGI,[39],> 100 µM
same,GI50,[56],81.3 µM
same,TGI,[56],> 100 µM
same,GI50,[41],> 100 µM
same,TGI,[41],> 100 µM
same,GI50,[42],> 100 µM
same,TGI,[42],> 100 µM
same,GI50,[43],> 100 µM
same,TGI,[43],> 100 µM
same,GI50,[44],> 100 µM
same,TGI,[44],> 100 µM
same,GI50,[45],> 100 µM
same,TGI,[45],> 100 µM
same,GI50,[46],> 100 µM
same,TGI,[46],> 100 µM
same,GI50,[47],> 100 µM
same,TGI,[47],> 100 µM
same,GI50,[48],> 100 µM
same,TGI,[48],> 100 µM
same,GI50,[49],> 100 µM
same,TGI,[49],> 100 µM
same,GI50,[57],> 100 µM
same,TGI,[57],> 100 µM
same,GI50,[50],> 100 µM
same,TGI,[50],> 100 µM
same,GI50,[51],> 100 µM
same,TGI,[51],> 100 µM
same,GI50,[52],> 100 µM
same,TGI,[52],> 100 µM
same,GI50,[53],> 100 µM
same,TGI,[53],> 100 µM
same,GI50,[54],> 100 µM
same,TGI,[54],> 100 µM
same,GI50,[55],> 100 µM
same,TGI,[55],> 100 µM
